Values quoted from earlier work in patent US12357592B2, “Compositions and methods for monitoring the treatment of breast disorders” (priority 2018, dated 2025).

System: breast cancer
Conditions: tamoxifen as prevention, given to healthy women; background statement

CC/C(=C(\c1ccccc1)c1ccc(OCCN(C)C)cc1)c1ccccc1 [Tamoxifen, (Z)-2-[4-(1,2-diphenyl-1-butenyl)phenoxy]-N,N-dimethylethanamine]
reduce the risk of breast cancer: ≤ 50%
